The target of this assay is T1, caspase-3 (Homo sapiens, UniProt P42574).
T1 construct: gene CASP3; recombinant active caspase-3 enzyme
T1 sequence (P42574 29-175): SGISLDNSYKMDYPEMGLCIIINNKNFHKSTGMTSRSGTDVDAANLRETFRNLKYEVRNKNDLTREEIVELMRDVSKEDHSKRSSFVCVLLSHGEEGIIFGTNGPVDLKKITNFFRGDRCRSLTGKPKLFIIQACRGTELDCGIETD
T1 sequence (P42574 176-277): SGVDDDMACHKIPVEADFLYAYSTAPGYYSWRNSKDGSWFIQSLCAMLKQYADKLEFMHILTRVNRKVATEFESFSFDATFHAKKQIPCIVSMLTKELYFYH
The assay is described as follows: recombinant caspase-3 activity assay with luminogenic Z-DEVD-aminoluciferin (Caspase-Glo […]), dose response. The class given is biochemical.

Regarding `O=c1c(O)c(-c2ccc(O)cc2)oc2cc(O)cc(O)c12` [kaempferol], the IC50 was determined as 5.65 µM.

Usually IC50 stands for the concentration at which inhibition is half-maximal.

The values are drawn from paper PMC5794799, “Kaempferol mitigates Endoplasmic Reticulum Stress Induced Cell Death by targeting caspase 3/7” (Scientific Reports, 2018).
